Measured values published in patent US8148391B2 (Cephalon, Inc., priority 2006, dated 2012).
Where two headings read alike, the source gives them in different places. Each block holds one compound with its values, some of them ahead of it.

Columns and labels:
[1] = biological target: T1, baculovirus-expressed ALK (Homo sapiens, UniProt Q9UM73); experiment: ALK Kinase Assay (ELISA-type, time-resolved fluorescence); assay type: biochemical
T1 construct: host or cells: baculovirus expression system
Procedure, shortened: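 Wells were coated with phospholipase C-γ at 10 μg/mL in Tris-buffered saline. Adding 30 ng/ml enzyme started the reaction, which ran at 37° C for 15 minutes before Eu-N1 PT66 antibody detection. Percent inhibition versus log10 concentration gave IC50 by variable-slope fit.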

[2] = biological target: T2, c-Met (cytoplasmic domain) (Homo sapiens, UniProt P08581); experiment: c-Met Kinase Assay (same methods as for ALK, with modifications); assay type: biochemical
T2 construct: 10 ng/mL c-Met (cytoplasmic domain, Invitrogen Corporation #PV3143); purchased Invitrogen Corporation PV3143
Procedure, shortened: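 IC50 values were fitted by variable-slope sigmoidal regression of percent inhibition against log compound concentration. Phosphorylation was read with Eu-N1 PT66 antibody after a 15 min, 37 °C reaction. The reaction was initiated with 10 ng/mL c-Met cytoplasmic domain on wells coated with 10 μg/mL PLC-γ in TBS.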

[3] = 1 μM ATP (Km level), 30 ng/ml ALK, 37° C., 15 minutes, read-out: ALK Activity (ALK kinase inhibition, IC50 class)
[4] = 1 μM ATP (Km level), 10 ng/mL c-Met, read-out: cMet Activity (c-Met kinase inhibition, IC50 class)
[5] = ALK kinase inhibition, 1 μM ATP (Km level), read-out: ALK Activity
[6] = c-Met kinase inhibition, 1 μM ATP (Km level), read-out: cMet Activity
[7] = 1 μM ATP (Km level), read-out: ALK Activity (ALK Kinase Inhibition, IC50)
[8] = 1 μM ATP (Km level), read-out: cMet Activity (c-Met Kinase Inhibition, IC50)
[9] = ALK kinase inhibition, 1 μM ATP, read-out: ALK Activity
[10] = c-Met kinase inhibition, 1 μM ATP, read-out: cMet Activity

T2 sequence (P08581 956-1390 limits assumed): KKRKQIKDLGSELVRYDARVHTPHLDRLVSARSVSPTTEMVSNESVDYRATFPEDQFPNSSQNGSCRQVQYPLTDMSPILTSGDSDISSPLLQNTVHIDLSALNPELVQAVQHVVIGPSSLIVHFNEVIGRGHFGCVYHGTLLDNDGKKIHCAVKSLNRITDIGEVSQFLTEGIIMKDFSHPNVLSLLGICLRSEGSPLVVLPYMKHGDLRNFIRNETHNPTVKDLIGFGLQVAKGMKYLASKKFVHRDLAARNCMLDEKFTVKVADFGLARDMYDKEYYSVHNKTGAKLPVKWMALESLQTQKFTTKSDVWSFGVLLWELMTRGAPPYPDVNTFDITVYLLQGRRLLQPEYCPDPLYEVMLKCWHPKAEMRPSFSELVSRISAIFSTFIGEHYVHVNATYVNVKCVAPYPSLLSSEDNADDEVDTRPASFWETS
T1 sequence (Q9UM73 19-1620): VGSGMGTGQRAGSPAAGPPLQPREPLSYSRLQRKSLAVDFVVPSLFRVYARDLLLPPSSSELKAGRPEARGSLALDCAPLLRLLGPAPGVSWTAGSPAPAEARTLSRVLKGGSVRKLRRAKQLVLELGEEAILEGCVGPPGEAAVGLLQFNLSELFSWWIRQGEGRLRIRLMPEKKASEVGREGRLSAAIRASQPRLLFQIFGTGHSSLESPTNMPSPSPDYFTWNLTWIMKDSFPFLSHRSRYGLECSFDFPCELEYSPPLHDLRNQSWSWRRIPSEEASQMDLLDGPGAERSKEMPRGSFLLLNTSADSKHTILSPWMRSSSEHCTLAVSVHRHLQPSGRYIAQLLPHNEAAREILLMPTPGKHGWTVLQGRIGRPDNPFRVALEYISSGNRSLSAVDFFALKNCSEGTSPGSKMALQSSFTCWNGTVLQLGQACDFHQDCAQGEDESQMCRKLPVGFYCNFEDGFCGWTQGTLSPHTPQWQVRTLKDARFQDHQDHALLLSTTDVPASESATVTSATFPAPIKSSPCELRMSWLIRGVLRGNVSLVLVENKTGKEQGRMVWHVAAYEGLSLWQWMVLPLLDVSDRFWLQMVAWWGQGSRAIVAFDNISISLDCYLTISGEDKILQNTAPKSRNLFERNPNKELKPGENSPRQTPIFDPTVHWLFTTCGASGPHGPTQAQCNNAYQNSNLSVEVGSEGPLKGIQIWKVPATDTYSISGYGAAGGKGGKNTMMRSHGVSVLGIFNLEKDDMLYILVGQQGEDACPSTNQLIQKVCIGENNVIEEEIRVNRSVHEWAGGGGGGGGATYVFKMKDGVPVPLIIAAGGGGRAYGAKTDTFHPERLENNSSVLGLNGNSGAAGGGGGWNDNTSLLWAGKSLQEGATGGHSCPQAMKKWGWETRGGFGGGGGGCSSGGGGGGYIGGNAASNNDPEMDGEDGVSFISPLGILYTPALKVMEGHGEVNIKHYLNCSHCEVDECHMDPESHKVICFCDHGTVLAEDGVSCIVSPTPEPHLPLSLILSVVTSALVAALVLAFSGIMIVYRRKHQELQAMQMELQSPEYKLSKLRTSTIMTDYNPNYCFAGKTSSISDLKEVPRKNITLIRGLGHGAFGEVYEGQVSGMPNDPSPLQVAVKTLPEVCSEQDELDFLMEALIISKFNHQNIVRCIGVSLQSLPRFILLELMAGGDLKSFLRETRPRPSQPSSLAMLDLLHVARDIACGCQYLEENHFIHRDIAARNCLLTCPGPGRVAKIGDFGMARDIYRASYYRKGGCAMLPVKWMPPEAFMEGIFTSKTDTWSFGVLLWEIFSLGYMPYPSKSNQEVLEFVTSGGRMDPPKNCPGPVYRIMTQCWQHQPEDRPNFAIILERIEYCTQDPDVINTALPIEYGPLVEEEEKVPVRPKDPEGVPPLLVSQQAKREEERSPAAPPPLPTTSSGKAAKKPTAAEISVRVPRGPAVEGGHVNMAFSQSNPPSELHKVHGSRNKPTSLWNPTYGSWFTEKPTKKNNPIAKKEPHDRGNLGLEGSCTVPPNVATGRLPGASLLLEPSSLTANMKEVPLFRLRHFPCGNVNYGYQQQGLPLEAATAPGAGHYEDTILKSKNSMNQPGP

SMILES: COc1cc2c(cc1Nc1ncc(C(F)(F)F)c(N[C@H]3[C@@H](C(N)=O)[C@@H]4C=C[C@H]3C4)n1)CCN(CC(=O)N(C)C)CC2 [Example 933, (1S,2S,3R,4R)-3-[2-(3-Dimethylcarbamoylmethyl-8-methoxy-2,3,4,5-tetrahydro-1H-3-benzazepin-7-ylamino)-5-trifluoromethyl-pyrimidin-4-ylamino]-bicyclo[2.2.1]hept-5-ene-2-carboxylic acid amide]
IC50 [1, 7]: < 100 nM
IC50 [2, 8]: 1000 to 10000 nM

SMILES: CS(=O)(=O)N[C@@H]1CCCC[C@H]1Nc1nc(Nc2ccc3c(c2)CCC(F)(F)CC3)ncc1Cl [Example 181, N-{(1R,2R)-2-[5-Chloro-2-(7,7-difluoro-6,7,8,9-tetrahydro-5H-benzocyclohepten-2-ylamino)-pyrimidin-4-ylamino]-cyclohexyl}-methanesulfonamide]
IC50 [1, 5]: < 100 nM
IC50 [2, 6]: 1000 to 10000 nM

SMILES: COc1cc2c(cc1Nc1ncc(Cl)c(Nc3ccc(Cl)cc3S(=O)(=O)N(C)C)n1)CCN(CC(=O)N1CCN(C)CC1)CC2 [Example 842, 5-Chloro-2-(5-chloro-2-{8-methoxy-3-[2-(4-methyl-piperazin-1-yl)-2-oxo-ethyl]-2,3,4,5-tetrahydro-1H-benzo[d]azepin-7-ylamino}-pyrimidin-4-ylamino)-N,N-dimethyl-benzenesulfonamide]
IC50 [1, 7]: < 100 nM
IC50 [2, 8]: > 10000 nM

SMILES: CN1CCNCc2ccc(Nc3ncc(Cl)c(N[C@@H]4CCCC[C@H]4NS(C)(=O)=O)n3)cc21 [Example 475, N-{(1R,2R)-2-[5-Chloro-2-(1-methyl-2,3,4,5-tetrahydro-1H-benzo[e][1,4]diazepin-8-ylamino)-pyrimidin-4-ylamino]-cyclohexyl}-methanesulfonamide]
IC50 [1, 5]: < 100 nM
IC50 [2, 6]: 1000 to 10000 nM

SMILES: COCCN1CCOc2ccc(Nc3ncc(Cl)c(N[C@@H]4CCCC[C@H]4NS(C)(=O)=O)n3)cc2C1 [Example 711, N-((1R,2R)-2-{5-Chloro-2-[4-(2-methoxy-ethyl)-2,3,4,5-tetrahydro-benzo[f][1,4]oxazepin-7-ylamino]-pyrimidin-4-ylamino}-cyclohexyl)methanesulfonamide]
IC50 [1, 7]: < 100 nM
IC50 [2, 8]: 100 to 1000 nM

SMILES: CS(=O)(=O)Nc1ccccc1Nc1nc(Nc2ccc3c(c2)C2CCC3CN(C(=O)C(F)(F)F)C2)ncc1Cl (stereo not drawn) [Example 291, N-(2-{5-Chloro-2-[10-(2,2,2-trifluoro-acetyl)-10-aza-tricyclo[6.3.2.0*2,7*]trideca-2,4,6-trien-4-ylamino]-pyrimidin-4-ylamino}-phenyl)-methanesulfonamide]
IC50 [1, 5]: < 100 nM
IC50 [2, 6]: 1000 to 10000 nM

SMILES: NC(=O)[C@@H]1CCCC[C@H]1Nc1nc(Nc2ccc3c(c2)CCC(NCC(F)(F)F)CC3)ncc1Cl (stereo partly drawn) [Example 653]
IC50 [1, 7]: < 100 nM
IC50 [2, 8]: 100 to 1000 nM

SMILES: CCN1CCOc2cc(Nc3ncc(Cl)c(Nc4ccccc4C(=O)NC)n3)ccc2C1=O [Example 515, 2-[5-Chloro-2-(4-ethyl-5-oxo-2,3,4,5-tetrahydro-benzo[f][1,4]oxazepin-8-ylamino)-pyrimidin-4-ylamino]-N-methyl-benzamide]
IC50 [1, 7]: < 100 nM
IC50 [2, 8]: < 100 nM

SMILES: COc1cc2c(cc1Nc1ncc(Cl)c(N[C@@H]3CCCC[C@H]3NS(C)(=O)=O)n1)CCC(NCC(F)F)CC2 (single isomer, unassigned) [Example 1058]
IC50 [1, 3]: < 100 nM
IC50 [2, 4]: > 10000 nM

SMILES: CCN1C(=O)CCCc2cc(Nc3ncc(Cl)c(Nc4cc(Cl)ccc4OC)n3)c(OC)cc21 [Example 137, 7-[5-Chloro-4-(5-chloro-2-methoxy-phenylamino)-pyrimidin-2-ylamino]-1-ethyl-8-methoxy-1,3,4,5-tetrahydro-benzo[b]azepin-2-one]
IC50 [1, 5]: 100 to 1000 nM
IC50 [2, 6]: > 10000 nM

SMILES: COc1cc2c(cc1Nc1ncc(Cl)c(Nc3ccc(N(C)C)cc3OC)n1)CCN(CCS(C)(=O)=O)CC2 [Example 1167, 5-Chloro-N*4*-(4-dimethylamino-2-methoxy-phenyl)-N*2*-[3-(2-methanesulfonyl-ethyl)-8-methoxy-2,3,4,5-tetrahydro-1H-benzo[d]azepin-7-yl]-pyrimidine-2,4-diamine]
IC50 [1, 3]: < 100 nM
IC50 [2, 4]: > 10000 nM

SMILES: CN(C)S(=O)(=O)c1ccccc1Nc1nc(Nc2ccc3c(c2)CCC(O)CC3)ncc1Cl (stereo not drawn) [Example 1033, 2-[5-Chloro-2-(7-hydroxy-6,7,8,9-tetrahydro-5H-benzocyclohepten-2-ylamino)-pyrimidin-4-ylamino]-N,N-dimethyl-benzenesulfonamide]
IC50 [1, 3]: < 100 nM
IC50 [2, 4]: 100 to 1000 nM

Further lines, results first:

IC50 [1, 3]: 100 to 1000 nM
IC50 [2, 4]: 1000 to 10000 nM
SMILES: CN(CCC#N)c1cccc(F)c1Nc1nc(Nc2ccc3c(c2)NC(=O)CCC3(C)C)ncc1Cl [Example 1263, 3-({2-[5-Chloro-2-(5,5-dimethyl-2-oxo-2,3,4,5-tetrahydro-1H-1-benzazepin-8-ylamino)-pyrimidin-4-ylamino]-3-fluoro-phenyl}-methyl-amino)-propionitrile]

IC50 [1, 3]: < 100 nM
IC50 [2, 4]: 100 to 1000 nM
SMILES: COc1cc2c(cc1Nc1ncc(Cl)c(Nc3ccccc3S(=O)(=O)N3CCC(O)C3)n1)CCNC(=O)C2 (stereo not drawn) [Example 1193, 7-{5-Chloro-4-[2-(3-hydroxy-pyrrolidine-1-sulfonyl)-phenylamino]-pyrimidin-2-ylamino}-8-methoxy-1,3,4,5-tetrahydro-benzo[d]azepin-2-one]

IC50 [1, 5]: 100 to 1000 nM
IC50 [2, 6]: < 100 nM
SMILES: CNC(=O)c1sccc1Nc1nc(Nc2ccc3c(c2)N(C(C)=O)CC(=O)NC3)ncc1Cl [Example 1878, 3-[2-(1-Acetyl-3-oxo-2,3,4,5-tetrahydro-1H-benzo[e][1,4]diazepin-8-ylamino)-5-chloro-pyrimidin-4-ylamino]-thiophene-2-carboxylic acid methyl amide]

IC50 [1, 9]: < 100 nM
IC50 [2, 10]: < 100 nM
SMILES: CCN1CC(N2CCOCC2)COc2ccc(Nc3ncc(Cl)c(Nc4c(F)cccc4C(=O)NC)n3)cc21 (stereo not drawn) [Example 1722, 2-[5-Chloro-2-(9-ethyl-7-morpholin-4-yl-6,7,8,9-tetrahydro-5-oxa-9-aza-benzocyclohepten-2-ylamino)-pyrimidin-4-ylamino]-3-fluoro-N-methyl-benzamide]

IC50 [1, 3]: 100 to 1000 nM
IC50 [2, 4]: 100 to 1000 nM
SMILES: C#CCNC(=O)c1sccc1Nc1nc(Nc2ccc3c(c2)OCCCN3C(=O)OCCCN(C)C)ncc1Cl [Example 1429, 3-[5-Chloro-4-(2-prop-2-ynylcarbamoyl-thiophen-3-ylamino)-pyrimidin-2-ylamino]-7,8-dihydro-6H-5-oxa-9-aza-benzocycloheptene-9-carboxylic acid 3-dimethylamino-propyl ester]

IC50 [1, 9]: 100 to 1000 nM
IC50 [2, 10]: 100 to 1000 nM
SMILES: CNC(=O)c1ccsc1Nc1nc(Nc2ccc3c(c2)CCN(CCOC)CC3)ncc1Cl [Example 1484, 2-{5-Chloro-2-[3-(2-methoxy-ethyl)-2,3,4,5-tetrahydro-1H-benzo[d]azepin-7-ylamino]-pyrimidin-4-ylamino}-thiophene-3-carboxylic acid methylamide]

IC50 [1, 3]: < 100 nM
IC50 [2, 4]: > 10000 nM
SMILES: CCN1C(=O)[C@H](N)CCc2c1ccc(Nc1ncc(Cl)c(N[C@H]3[C@@H](C(N)=O)[C@@H]4C=C[C@H]3C4)n1)c2OC (single isomer, unassigned) [Example 1331]

IC50 [1, 3]: < 100 nM
IC50 [2, 4]: 1000 to 10000 nM
SMILES: COCCN1CCc2ccc(Nc3ncc(Cl)c(Nc4c(F)cccc4S(=O)(=O)C(C)C)n3)cc2CC1 [Example 1253, 5-Chloro-N(4)-[2-fluoro-6-(propane-2-sulfonyl)-phenyl]-N(2)-[3-(2-methoxy-ethyl)-2,3,4,5-tetrahydro-1H-3-benzazepin-7-yl]-pyrimidine-2,4-diamine]

IC50 [1, 9]: 1000 to 10000 nM
IC50 [2, 10]: < 100 nM
SMILES: CNC(=O)c1scc(C)c1Nc1nc(Nc2ccc3c(c2)CCOC(=O)N3C)ncc1Cl [Example 1759, 3-[5-Chloro-2-(5-methyl-6-oxo-5,6,8,9-tetrahydro-7-oxa-5-aza-benzocyclohepten-2-ylamino)-pyrimidin-4-ylamino]-4-methyl-thiophene-2-carboxylic acid methylamide]

IC50 [1, 3]: < 100 nM
IC50 [2, 4]: 100 to 1000 nM
SMILES: CCOC(=O)c1ccccc1Nc1nc(Nc2ccc3c(c2)CCN(CCOC)CC3)ncc1Cl [Example 1395, {5-Chloro-2-[3-(2-methoxy-ethyl)-2,3,4,5-tetrahydro-1H-benzo[d]azepin-7-ylamino]-pyrimidin-4-ylamino}-benzoic acid ethyl ester]

IC50 [1, 9]: < 100 nM
IC50 [2, 10]: 1000 to 10000 nM
SMILES: CCC(=O)OCCN1CCc2cc(Nc3ncc(Cl)c(Nc4ccccc4S(=O)(=O)N(C)C)n3)c(OC)cc2CC1 [Example 1546, Propionic acid 2-{7-[5-chloro-4-(2-dimethylsulfamoyl-phenylamino)-pyrimidin-2-ylamino]-8-methoxy-1,2,4,5-tetrahydro-3-benzazepin-3-yl}-ethyl ester]

IC50 [1, 9]: 100 to 1000 nM
IC50 [2, 10]: < 100 nM
SMILES: CCN1C(=O)CN(C(C)=O)Cc2ccc(Nc3ncc(Cl)c(Nc4c(Cl)cccc4C(=O)NC)n3)cc21 [Example 1854, 2-[2-(4-Acetyl-1-ethyl-2-oxo-2,3,4,5-tetrahydro-1H-benzo[e][1,4]diazepin-8-ylamino)-5-chloro-pyrimidin-4-ylamino]-3-chloro-N-methyl-benzamide]
